1 molecule from patent US20080260850A1, “Delivery System For Bioactive Agents on the Basis of a Polymeric Drug Carrier Comprising an Amphiphilic Block Polymer and a Polylacticacid Derivative” (SAMYANG CORPORATION, priority 2004, published 2008) can be followed below.

The conditions of data set [1]: rat, in vivo, iv, 5 mg/kg. The method, then: The rats (5 rats for each formulation) were injected intravenously through the tail vein at a dose of 5 mg/kg. The blood samples were collected from the tail vein at 1, 5, 15, 30 minutes and 1, 2, 4, 8, and 24 hours after the drug injection. The blood samples were immediately centrifuged, and the plasma was separated. The plasma samples were stored at −50° C. until analysis. Doxorubicin was analyzed by HPLC assay described in example 1.

Data set [2] deals with MES-SA/Dx-5 (doxorubicin-resistant cell line). Put plainly: In vitro cytotoxicity, MTT assay. It counts as cell-based. The method, then:
(§1) MTT assay is well established method for cytotoxicity test. When the cells are treated with MTT (methylthiazoletetrazolium), the MTT-formazan is produced from reduction of MTT-tetrazolium by enzymes present in living cells only (dead cells cannot reduce the MTT-tetrazolium to MTT-formazan). The fluorescence of the MTT-formazan is detected by a fluorescence reader and the optical density correlates with the number of cells.
(§2) The cytotoxic activity of each composition was evaluated in both human tumor cell lines at five ten-fold dilutions ranging from 0.01 to 100 μg/ml. […] The MTT-formazan produced from reduction of MTT-tetrazolium by enzymes present in the living cells was detected by a fluorescence reader. The optical density correlates with the number of cells. […] The MTT assay was performed essentially according to the method of Carmichael et al. (Cancer Research 47: 936 (1987)). Briefly, cells were harvested from an exponential phase culture growing in McCoy's 5A medium (Invitrogen Corp.) supplemented with 10% fetal bovine serum and 1% penicillin streptomycin, counted and plated in 96 well flat-bottomed microtiter plates (100 cell suspension, 5×10^4 cells/ml for each cell line). After a 24 h recovery to allow the cells to resume exponential growth, a culture medium (24 control wells per plate) or culture medium containing drug was added to the wells. Each drug concentration was plated in triplicate. […] Fluorescence was measured using an automatic microplate reader (SpectraMax 190, Molecular Devices) at a wavelength of 549 nm, and the number of viable cells was calculated from the optical density.
A general note: Formazan colour is commonly taken as a measure of viable cells.

The subject of data set [3] is MES-SA (doxorubicin-sensitive cell line). Put plainly: In vitro cytotoxicity, MTT assay. It counts as cell-based. The protocol: as §1, §2
The test system of data set [4] is MES-SA/Dx-5 (doxorubicin-resistant cell line). Put plainly: Intracellular uptake, flow cytometry (FACS). It counts as cell-based, human. As to conditions: MES-SA/Dx-5, 1.0 μg/ml. The method, then:
(§3) The flow cytometry study was performed with the FACStarPlus (Becton Dickinson) according to the method of Walker et al. (Experimental Cell Research 207: 142 (1993)). Briefly, cells (1.0×10^6) were incubated in McCoy's 5A medium (Invitrogen Corp.) supplemented with 10% fetal bovine serum and 1% penicillin streptomycin. After a 24-hour incubation period, the cells were treated with the drug composition at a dose of 1.0 μg/ml.
(A flow cytometer gives signals particle by particle.)

The test system of data set [5] is MES-SA (doxorubicin-sensitive cell line). Put plainly: Intracellular uptake, flow cytometry (FACS). It counts as cell-based, human. The conditions noted are these: 1.0 μg/ml. The protocol: as §3

What is called AUC is concentration integrated over time. In data set [1], `COc1cccc2c1C(=O)c1c(O)c3c(c(O)c1C2=O)C[C@@](O)(C(=O)CO)C[C@@H]3O[C@H]1C[C@H](N)[C@H](O)[C@H](C)O1.Cl` [Free-Dox, doxorubicin hydrochloride] came in with an AUC of 1300 ng·h/mL. The “MTT Assay IC50” value in data set [2] (MES-SA/Dx-5, time 24 hr) is 54.0 µg/mL; in data set [2] (MES-SA/Dx-5, time 48 hr), 0.92 µg/mL; in data set [2] (MES-SA/Dx-5, time 72 hr), 0.75 µg/mL; in data set [3] (time 24 hr), 0.30 µg/mL; in data set [3] (time 48 hr), 0.087 µg/mL; in data set [3] (time 72 hr), 0.031 µg/mL. Besides, the “Change of (Δ) Fluorescence Intensity” value in data set [4] (time 0 hr) is on record as 0.0; in data set [4] (time 1 hr), 2.6; in data set [4] (time 4 hr), 7.1; in data set [4] (time 8 hr), 9.2; in data set [5] (time 0 hr) it was 0.0; in data set [5] (time 1 hr), 7.6. In addition, the entries for the “Change of (Δ) Fluorescence Intensity” value in data set [5] (time 4 hr) and in data set [5] (time 8 hr) were 20.6 and 40.6, respectively. Moreover, the “Number of cells(%) which absorbed the drug” value in data set [4] (time 0 hr) is 1.0%; in data set [4] (time 1 hr) it was 1.8%; in data set [4] (time 4 hr), 3.2%; in data set [4] (time 8 hr), 5.3%; in data set [5] (time 0 hr), 1.0%; in data set [5] (time 1 hr), 4.0%. In addition, the entries for the “Number of cells(%) which absorbed the drug” value in data set [5] (time 4 hr) and in data set [5] (time 8 hr) were 11.3% and 35.1%, respectively.
